# Measured values: patent US10471029B2, “Methods for treating neurological disorders” (Alzheon, Inc., priority 2014, dated 2019)
# Like-named read-outs stand apart in the source and are kept apart here.
# Key:
# [1] = test system: Alzheimer's Disease patients; conditions: n=599, cited from earlier work
# [2] = test system: Alzheimer's Disease patients; experiment: Change in ADAS-Cog by ApoE status in North American Trial; type: in vivo, human; conditions: for Change in ADAS-Cog Slope vs placebo / Change in ADAS-Cog Week 78: North American Trial
# Excerpt: (§1) In certain embodiments, the efficacy of a compound may be determined through the ADAS-cog (Alzheimer's Disease Assessment Scale-cognitive subscale). ADAS was designed to measure the severity of the most important symptoms of Alzheimer's disease (AD). Its subscale ADAS-cog is the most popular cognitive testing instrument used in clinical trials of nootropics. It consists of 11 tasks measuring the disturbances of memory, language, praxis, attention and other cognitive abilities which are often referred to as the core symptoms of AD. The ADAS-Cog helps evaluate cognition and differentiates between normal cognitive functioning and impaired cognitive functioning. It is especially useful for determining the extent of cognitive decline and can help evaluate which stage of Alzheimer's disease a person is in, based on their answers and score. The ADAS-Cog can be used in clinical trials in order to determine incremental improvements or declines in cognitive functioning.
# (§2) Patients were administered 3APS at 150 mg BID and 100 mg BID or were provided a placebo. ADAS-Cog results were measured. The data establish that the decline in score is delayed by 3APS. At 13 weeks a small improvement in ADAS-cog was observed. Over time, the difference increased.
# Patients were administered 3APS and ADAS-Cog results were obtained at various timepoints. Patients were then genotyped to detect the presence of ApoE4 alleles. FIG. 8 illustrates the advantageous effects of tramiprosate, the active agent of Val-APS, in certain sub-populations segregated based on Apo E4 status. […] Data is presented at 13 weeks, 26 weeks, 39 weeks, 52 weeks, 65 weeks, and 78 weeks. […] ApoE4 prevalence correlates with improved cognition scores.
# [3] = test system: Alzheimer's Disease patients; experiment: ADAS-Cog by ApoE4 subgroup in merged dataset; type: in vivo, human; conditions: for Change in ADAS-Cog Slope vs placebo / Change in ADAS-Cog Week 78 / ADAS-Cog Slope vs placebo / ADAS-Cog Week 78: merged dataset; for Change in ADAS-Cog Slope vs placebo / Change in ADAS-Cog Week 78: <80 years old
# Excerpt: as §1, §2
# [4] = test system: Alzheimer's Disease patients; experiment: ADAS-Cog score following treatment of Alzheimer's Disease patients with tramiprosate, retrospective subgroup analysis in 599 ApoE4+ subjects (FIGS. 1-2); type: in vivo, human; conditions: through 18 months, 150 mg BID, n=183, on top of acetylcholinesterase inhibitors and/or memantine
# Method: FIG. 1 illustrates reduced ADAS-Cog score following treatment of Alzheimer's Disease patients with tramiprosate. At 26 weeks−1.25 (82%) P=0.0219 for 100 mg BID, −1.03 (57%), P=0.118 for 150 mg BID. At 52 weeks−2.03 (35%) P=0.002 for 100 mg BID, −1.85 (32%), P=0.006 for 150 mg BID. At 65 weeks−1.52 (22%) P=0.024 for 100 mg BID, −1.90 (27%) P=0.005 for 150 mg BID. At 78 weeks−1.90 (27%) P=0.005 for 100 mg BID, −1.86 (21%) P=0.028 for 150 mg BID. (n=599). Data derived from Caltagirone et al., “The potential protective effect of tramiprosate (homotaurine) against Alzheimer's disease: a review,” Aging Clin Exp Res. 2012 December; 24(6):580-7.
# as §1, with “It is especially useful for determining the extent of cognitive decline and can help evaluate which stage of Alzheimer's disease a person is in, based on their answers and score. The ADAS-Cog can be used in clinical trials in order to determine incremental improvements or declines in cognitive functioning.” left out
# [5] = test system: Alzheimer's Disease patients; experiment: CDR-SB (function) in ApoE4+ subjects (FIG. 3); type: in vivo, human; conditions: through 18 months, 150 mg BID, n=183, on top of acetylcholinesterase inhibitors and/or memantine
# [6] = human, in vivo
# [7] = Tolerability of Val-APS prodrug over tramiprosate; type: in vivo
# [8] = Plasma and brain exposure of tramiprosate after oral Val-APS or tramiprosate in animals (FIG. 4); type: in vivo; conditions: Val-APS prodrug versus tramiprosate
# Excerpt: L-Valyl-3-aminopropanesulfonate (Val-APS) is an orally available small molecule prodrug of tramiprosate with improved pharmaceutical properties. Tramiprosate was advanced to a ˜2,000 patient Phase 3 program which completed in 2007. […] Thus the present disclosure provides for administration of certain compounds including val-APS to ApoE4-positive patients for the treatment of Alzheimer's Disease.
# The AUC ratio of brain tramiprosate exposure due to Val-APS compared to tramiprosate is ˜2.1.
structure (smiles),measurement,setting,value
"NCCCS(=O)(=O)O [Compound 3APS, 3-amino-1-propanesulfonic acid]","ADAS-Cog score, percent in brackets","[1]; 26 weeks, 100 mg BID",82%
same,ADAS-Cog score,"[1]; 26 weeks, 150 mg BID",−1.03
same,"ADAS-Cog score, percent in brackets","[1]; 26 weeks, 150 mg BID",57%
same,"ADAS-Cog score, percent in brackets","[1]; 52 weeks, 100 mg BID",35%
same,ADAS-Cog score,"[1]; 52 weeks, 150 mg BID",−1.85
same,"ADAS-Cog score, percent in brackets","[1]; 52 weeks, 150 mg BID",32%
same,"ADAS-Cog score, percent in brackets","[1]; 65 weeks, 100 mg BID",22%
same,ADAS-Cog score,"[1]; 65 weeks, 150 mg BID",−1.90
same,"ADAS-Cog score, percent in brackets","[1]; 65 weeks, 150 mg BID",27%
same,ADAS-Cog score,"[1]; 78 weeks, 100 mg BID",−1.90
same,"ADAS-Cog score, percent in brackets","[1]; 78 weeks, 100 mg BID",27%
same,ADAS-Cog score,"[1]; 78 weeks, 150 mg BID",−1.86
same,"ADAS-Cog score, percent in brackets","[1]; 78 weeks, 150 mg BID",21%
same,Change in ADAS-Cog Slope vs placebo,"[2]; ApoE4+ and ++, 100 mg BID",−1.43
same,Change in ADAS-Cog Week 78,"[2]; ApoE4+ and ++, 100 mg BID",−0.81
same,Change in ADAS-Cog Slope vs placebo,"[2]; ApoE4+ and ++, 150 mg BID",−7.49
same,Change in ADAS-Cog Week 78,"[2]; ApoE4+ and ++, 150 mg BID",−1.67
same,Change in ADAS-Cog Slope vs placebo,"[2]; ApoE4++, 100 mg BID",−4.33
same,Change in ADAS-Cog Week 78,"[2]; ApoE4++, 100 mg BID",−1.49
same,Change in ADAS-Cog Slope vs placebo,"[2]; ApoE4++, 150 mg BID",−19.79
same,Change in ADAS-Cog Week 78,"[2]; ApoE4++, 150 mg BID",−4.63
same,Change in ADAS-Cog Slope vs placebo,"[2]; ApoE4−, 100 mg BID",−2.04
same,Change in ADAS-Cog Week 78,"[2]; ApoE4−, 100 mg BID",−1.23
same,Change in ADAS-Cog Slope vs placebo,"[2]; ApoE4−, 150 mg BID",3.57
same,Change in ADAS-Cog Week 78,"[2]; ApoE4−, 150 mg BID",0.59
same,Change in ADAS-Cog Slope vs placebo,"[2]; Total, 100 mg BID",−1.75
same,Change in ADAS-Cog Week 78,"[2]; Total, 100 mg BID",−0.93
same,Change in ADAS-Cog Slope vs placebo,"[2]; Total, 150 mg BID",−3.32
same,Change in ADAS-Cog Week 78,"[2]; Total, 150 mg BID",−0.83
same,improvement versus placebo on cognition,"[2]; homozygous ApoE4 subjects, 150 mg BID, n=34",4 point
same,improvement versus placebo on the ADAS-cog,"[2]; homozygous ApoE4 subjects, 150 mg BID, n=34, after 18 months of treatment",4.62 points
same,decline in ADAS-Cog score,[3]; 150 mg BID and 100 mg BID versus placebo,delayed
same,Change in ADAS-Cog Slope vs placebo,"[3]; ApoE4+, 100 mg BID",−3.92
same,Change in ADAS-Cog Week 78,"[3]; ApoE4+, 100 mg BID",−1.13
same,Change in ADAS-Cog Slope vs placebo,"[3]; ApoE4+, 150 mg BID",−8.65
same,Change in ADAS-Cog Week 78,"[3]; ApoE4+, 150 mg BID",−2.17
same,Change in ADAS-Cog Slope vs placebo,"[3]; ApoE4−, 100 mg BID",−4.40
same,Change in ADAS-Cog Week 78,"[3]; ApoE4−, 100 mg BID",−2.54
same,Change in ADAS-Cog Slope vs placebo,"[3]; ApoE4−, 150 mg BID",−2.81
same,Change in ADAS-Cog Week 78,"[3]; ApoE4−, 150 mg BID",−0.93
same,Change in ADAS-Cog Slope vs placebo,"[3]; Total, 100 mg BID",−3.94
same,Change in ADAS-Cog Week 78,"[3]; Total, 100 mg BID",−1.55
same,Change in ADAS-Cog Slope vs placebo,"[3]; Total, 150 mg BID",−6.37
same,Change in ADAS-Cog Week 78,"[3]; Total, 150 mg BID",−1.66
same,ADAS-Cog Slope vs placebo,"[3]; ApoE4+, 100 mg BID",−3.61
same,ADAS-Cog Week 78,"[3]; ApoE4+, 100 mg BID",−1.09
same,ADAS-Cog Slope vs placebo,"[3]; ApoE4+, 150 mg BID",−7.09
same,ADAS-Cog Week 78,"[3]; ApoE4+, 150 mg BID",−1.73
same,ADAS-Cog Slope vs placebo,"[3]; ApoE4−, 100 mg BID",−2.45
same,ADAS-Cog Week 78,"[3]; ApoE4−, 100 mg BID",−1.92
same,ADAS-Cog Slope vs placebo,"[3]; ApoE4−, 150 mg BID",0.35
same,ADAS-Cog Week 78,"[3]; ApoE4−, 150 mg BID",−0.66
same,ADAS-Cog Slope vs placebo,"[3]; Total, 100 mg BID",−3.18
same,ADAS-Cog Week 78,"[3]; Total, 100 mg BID",−1.34
same,ADAS-Cog Slope vs placebo,"[3]; Total, 150 mg BID",−4.19
same,ADAS-Cog Week 78,"[3]; Total, 150 mg BID",−1.27
same,cognition (ADAS-cog),[4],clinically meaningful improvement
same,function (CDR-SB),[5],clinically meaningful improvement
"CC(C)[C@H](N)C(=O)NCCCS(=O)(=O)O [Val-APS, L-Valyl-3-aminopropanesulfonate]",formation of metabolite NRM5074,[6],reduced
same,inter-subject PK variability,[6],decreased
same,t½,[6],14.9 ±3.9
same,GI tolerability,[7],improved
same,nausea & vomiting,[7],reduced
same,accumulation in the brain,[8],improved
